Assay results taken from patent US20100298141A1, “SUBSTITUTED PYRIDINE N-OXIDE HERBICIDES” (E. I. DU PONT DE NEMOURS AND COMPANY, priority 2007, published 2010).

Tests used:
Experiment in all cases: Test F preemergence test
[1] = test system: purple nutsedge; type: in vivo, Cyperus rotundus; settings: scale 0 to 100
From the text: (§1) Seeds of plant species selected from bermudagrass (Cynodon dactylon), Surinam grass (Brachiaria decumbens), large crabgrass (Digitaria sanguinalis), green foxtail (Setaria viridis), goosegrass (Eleusine indica), johnsongrass (Sorghum halepense), kochia (Kochia scoparia), pitted morningglory (Ipomoea lacunosa), purple nutsedge (Cyperus rotundus), common ragweed (Ambrosia elation), mustard (Brassica nigra), guineagrass (Panicum maximum), […] (Paspalum dilatatum), barnyardgrass (Echinochloa crus-galli), southern sandbur (Cenchrus echinatus), common sowthistle (Sonchus oleraceous), prickly […] spinosa), Italian ryegrass (Lolium multiflorum), common purslane (Portulaca oleracea), broadleaf signalgrass (Brachiaria platyphylla), common groundsel (Senecio vulgaris), common chickweed (Stellaria media), Virginia dayflower (Commelina virginica), annual bluegrass (Poa annua), naked crabgrass (Digitaria nuda), […] cochinchinensis), quackgrass (Elytrigia repens), Canada horseweed (Conyza canadensis), field bindweed (Convolvulus arvensis), […] (Bidens bipinnata), common mallow (Malva sylvestris), Russian thistle (Salsola kali), and sugarcane (Saccharum officinarum) were planted and treated preemergence with test chemicals formulated in a non-phytotoxic solvent mixture which included a surfactant. At a different time, sugarcane was treated with postemergence applications of some of the test chemicals formulated in the same manner. Plants were approximately 3- to 4-leaf stage for the postemergence treatments. Treated plants and controls were maintained in a greenhouse for 14 to 21 days, after which time all species were compared to controls and visually evaluated. […] A dash (-) response means no test result.

[2] = test system: southern sandbur; type: in vivo, Cenchrus echinatus; settings: scale 0 to 100; for Sandbur plant response rating: 125 g ai/ha
From the text: as §1

[3] = test system: common ragweed; type: in vivo, Ambrosia elation; settings: scale 0 to 100; for Ragweed plant response rating: 125 g ai/ha
From the text: as §1

[4] = test system: prickly sida; type: in vivo, Sida spinosa; settings: scale 0 to 100
From the text: as §1

[5] = test system: guineagrass; type: in vivo, Panicum maximum; settings: scale 0 to 100
From the text: as §1

[6] = test system: naked crabgrass; type: in vivo, Digitaria nuda; settings: scale 0 to 100
From the text: as §1

[7] = test system: itchgrass; type: in vivo, Rottboellia cochinchinensis; settings: scale 0 to 100
From the text: as §1

[8] = test system: goosegrass; type: in vivo, Eleusine indica; settings: scale 0 to 100
From the text: as §1

[9] = test system: bermudagrass; type: in vivo, Cynodon dactylon; settings: scale 0 to 100
From the text: as §1

[10] = test system: broadleaf signalgrass; type: in vivo, Brachiaria platyphylla; settings: scale 0 to 100; for Signalgrass plant response rating: 125 g ai/ha
From the text: as §1

[11] = test system: Italian ryegrass; type: in vivo, Lolium multiflorum; settings: scale 0 to 100; for Ryegrass, Italian plant response rating: 125 g ai/ha
From the text: as §1

[12] = test system: johnsongrass; type: in vivo, Sorghum halepense; settings: scale 0 to 100
From the text: as §1

[13] = test system: field bindweed; type: in vivo, Convolvulus arvensis; settings: scale 0 to 100
From the text: as §1

[14] = test system: common purslane; type: in vivo, Portulaca oleracea; settings: scale 0 to 100
From the text: as §1

[15] = test system: Surinam grass; type: in vivo, Brachiaria decumbens; settings: scale 0 to 100; for Surinam Grass plant response rating: 125 g ai/ha
From the text: as §1

What does the source list for `Cn1nc(OC(F)F)c(CS(=O)(=O)c2cccc[n+]2[O-])c1C(F)(F)F` [Compound 80]?
Plant response rating, Purple Nutsedge ([1]; 16 g ai/ha, preemergence): 0; Purple Nutsedge plant response rating ([1]; 62 g ai/ha, Preemergence): 50; Purple Nutsedge plant response rating ([1]; 125 g ai/ha, preemergence): 80; Plant response rating, Sandbur ([2]; 16 g ai/ha, preemergence): 65; Sandbur plant response rating ([2]; preemergence): 100; Plant response rating, Sandbur ([2]; Preemergence, 62 g ai/ha): 95; Plant response rating, Sandbur ([2]; Preemergence, 31 g ai/ha): 80; Plant response rating, Ragweed ([3]; 16 g ai/ha, preemergence): 0; Ragweed plant response rating ([3]; preemergence): 90; Plant response rating, Ragweed ([3]; Preemergence, 31 g ai/ha): 0; Plant response rating, Prickly Sida ([4]; 16 g ai/ha, preemergence): 0; Prickly Sida plant response rating ([4]; 62 g ai/ha, Preemergence): 0; Prickly Sida plant response rating ([4]; 125 g ai/ha, preemergence): 20; Plant response rating, Prickly Sida ([4]; Preemergence, 31 g ai/ha): 0; Plant response rating, Guineagrass ([5]; 16 g ai/ha, preemergence): 75; Guineagrass plant response rating ([5]; 62 g ai/ha, Preemergence): 98; Guineagrass plant response rating ([5]; 125 g ai/ha, preemergence): 100; Plant response rating, Guineagrass ([5]; Preemergence, 31 g ai/ha): 98; Plant response rating, Crabgrass, Naked ([6]; 16 g ai/ha, preemergence): 0; Crabgrass, Naked plant response rating ([6]; 62 g ai/ha, Preemergence): 90; Crabgrass, Naked plant response rating ([6]; 125 g ai/ha, preemergence): 100; Plant response rating, Crabgrass, Naked ([6]; Preemergence, 31 g ai/ha): 75; Plant response rating, Itchgrass ([7]; 16 g ai/ha, preemergence): 10; Itchgrass plant response rating ([7]; 62 g ai/ha, Preemergence): 60; Itchgrass plant response rating ([7]; 125 g ai/ha, preemergence): 90; Plant response rating, Itchgrass ([7]; Preemergence, 31 g ai/ha): 20; Plant response rating, Goosegrass ([8]; 16 g ai/ha, preemergence): 80; Goosegrass plant response rating ([8]; 62 g ai/ha, Preemergence): 95; Goosegrass plant response rating ([8]; 125 g ai/ha, preemergence): 100; Plant response rating, Goosegrass ([8]; Preemergence, 31 g ai/ha): 85; Plant response rating, Bermudagrass ([9]; 16 g ai/ha, preemergence): 50; Bermudagrass plant response rating ([9]; 62 g ai/ha, Preemergence): 90; Bermudagrass plant response rating ([9]; 125 g ai/ha, preemergence): 98; Plant response rating, Bermudagrass ([9]; Preemergence, 31 g ai/ha): 80; Plant response rating, Signalgrass ([10]; 16 g ai/ha, preemergence): 25; Signalgrass plant response rating ([10]; preemergence): 98; Plant response rating, Signalgrass ([10]; Preemergence, 62 g ai/ha): 75; Plant response rating, Signalgrass ([10]; Preemergence, 31 g ai/ha): 25; Plant response rating, Ryegrass, Italian ([11]; 16 g ai/ha, preemergence): 15; Ryegrass, Italian plant response rating ([11]; preemergence): 65; Plant response rating, Ryegrass, Italian ([11]; Preemergence, 62 g ai/ha): 65; Plant response rating, Ryegrass, Italian ([11]; Preemergence, 31 g ai/ha): 20; Plant response rating, Johnsongrass ([12]; 16 g ai/ha, preemergence): 50; Johnsongrass plant response rating ([12]; 62 g ai/ha, Preemergence): 90; Johnsongrass plant response rating ([12]; 125 g ai/ha, preemergence): 98; Plant response rating, Johnsongrass ([12]; Preemergence, 31 g ai/ha): 75; Plant response rating, Field Bindweed ([13]; 16 g ai/ha, preemergence): 0; Field Bindweed plant response rating ([13]; 62 g ai/ha, Preemergence): 0; Field Bindweed plant response rating ([13]; 125 g ai/ha, preemergence): 0; Plant response rating, Field Bindweed ([13]; Preemergence, 31 g ai/ha): 0; Plant response rating, Purslane ([14]; 16 g ai/ha, preemergence): 0; Purslane plant response rating ([14]; 62 g ai/ha, Preemergence): 0; Purslane plant response rating ([14]; 125 g ai/ha, preemergence): 0; Plant response rating, Purslane ([14]; Preemergence, 31 g ai/ha): 0; Plant response rating, Surinam Grass ([15]; 16 g ai/ha, preemergence): 0; Surinam Grass plant response rating ([15]; preemergence): 100; Plant response rating, Surinam Grass ([15]; Preemergence, 62 g ai/ha): 98; Plant response rating, Surinam Grass ([15]; Preemergence, 31 g ai/ha): 80

With `CC(Oc1c(CS(=O)(=O)c2cccc[n+]2[O-])c(C(F)(F)F)nn1C)C(F)(F)F` (stereo not shown) [Compound 82] as the molecule, how does the “Plant response rating, Purple Nutsedge” value ([1]; 16 g ai/ha, preemergence) read?
Its value is 0.

And the “Purple Nutsedge plant response rating” value ([1]; 125 g ai/ha, preemergence)?
The value was 50.

What about the “Plant response rating, Purple Nutsedge” value ([1]; Preemergence, 62 g ai/ha) of the same molecule?
The value was 30.

And the “Sandbur plant response rating” value ([2]; preemergence)?
Its value is 95.

And the “Plant response rating, Sandbur” value ([2]; Preemergence, 62 g ai/ha)?
The value was 60.

And the “Plant response rating, Sandbur” value ([2]; Preemergence, 31 g ai/ha)?
The value was 60.

What about the “Plant response rating, Ragweed” value ([3]; 16 g ai/ha, preemergence) of the same molecule?
Its value is 0.

And the “Ragweed plant response rating” value ([3]; preemergence)?
Its value is 0.

And the “Plant response rating, Ragweed” value ([3]; Preemergence, 31 g ai/ha)?
The value was 0.

What about the “Plant response rating, Prickly Sida” value ([4]; 16 g ai/ha, preemergence) of the same molecule?
The value was 0.

And the “Prickly Sida plant response rating” value ([4]; 125 g ai/ha, preemergence)?
Its value is 75.

And the “Plant response rating, Prickly Sida” value ([4]; Preemergence, 62 g ai/ha)?
The value was 15.

And the “Plant response rating, Prickly Sida” value ([4]; Preemergence, 31 g ai/ha)?
Its value is 0.

What about the “Plant response rating, Guineagrass” value ([5]; 16 g ai/ha, preemergence) of the same molecule?
The value was 70.

And the “Guineagrass plant response rating” value ([5]; 125 g ai/ha, preemergence)?
The value was 100.

And the “Plant response rating, Guineagrass” value ([5]; Preemergence, 62 g ai/ha)?
The value was 95.

And the “Plant response rating, Guineagrass” value ([5]; Preemergence, 31 g ai/ha)?
Its value is 70.

And the “Plant response rating, Crabgrass, Naked” value ([6]; 16 g ai/ha, preemergence)?
Its value is 35.

What about the “Crabgrass, Naked plant response rating” value ([6]; 125 g ai/ha, preemergence) of the same molecule?
Its value is 100.

And the “Plant response rating, Crabgrass, Naked” value ([6]; Preemergence, 62 g ai/ha)?
The value was 100.

And the “Plant response rating, Crabgrass, Naked” value ([6]; Preemergence, 31 g ai/ha)?
Its value is 98.

What about the “Itchgrass plant response rating” value ([7]; 125 g ai/ha, preemergence) of the same molecule?
Its value is 70.

And the “Plant response rating, Itchgrass” value ([7]; Preemergence, 62 g ai/ha)?
Its value is 60.

What about the “Plant response rating, Itchgrass” value ([7]; Preemergence, 31 g ai/ha) of the same molecule?
The value was 0.

What about the “Plant response rating, Goosegrass” value ([8]; 16 g ai/ha, preemergence) of the same molecule?
Its value is 15.

What about the “Goosegrass plant response rating” value ([8]; 125 g ai/ha, preemergence) of the same molecule?
The value was 98.

And the “Plant response rating, Goosegrass” value ([8]; Preemergence, 62 g ai/ha)?
The value was 98.

What about the “Plant response rating, Goosegrass” value ([8]; Preemergence, 31 g ai/ha) of the same molecule?
Its value is 75.

And the “Plant response rating, Bermudagrass” value ([9]; 16 g ai/ha, preemergence)?
Its value is 0.

And the “Bermudagrass plant response rating” value ([9]; 125 g ai/ha, preemergence)?
The value was 100.

And the “Plant response rating, Bermudagrass” value ([9]; Preemergence, 62 g ai/ha)?
Its value is 90.

What about the “Plant response rating, Bermudagrass” value ([9]; Preemergence, 31 g ai/ha) of the same molecule?
The value was 80.

What about the “Plant response rating, Signalgrass” value ([10]; 16 g ai/ha, preemergence) of the same molecule?
Its value is 50.

What about the “Signalgrass plant response rating” value ([10]; preemergence) of the same molecule?
The value was 100.

What about the “Plant response rating, Signalgrass” value ([10]; Preemergence, 62 g ai/ha) of the same molecule?
Its value is 100.

What about the “Plant response rating, Signalgrass” value ([10]; Preemergence, 31 g ai/ha) of the same molecule?
Its value is 50.

And the “Plant response rating, Ryegrass, Italian” value ([11]; 16 g ai/ha, preemergence)?
Its value is 35.

And the “Ryegrass, Italian plant response rating” value ([11]; preemergence)?
Its value is 100.

What about the “Plant response rating, Ryegrass, Italian” value ([11]; Preemergence, 62 g ai/ha) of the same molecule?
The value was 75.

What about the “Plant response rating, Ryegrass, Italian” value ([11]; Preemergence, 31 g ai/ha) of the same molecule?
The value was 75.

And the “Johnsongrass plant response rating” value ([12]; 125 g ai/ha, preemergence)?
The value was 100.

And the “Plant response rating, Johnsongrass” value ([12]; Preemergence, 62 g ai/ha)?
The value was 100.

What about the “Plant response rating, Johnsongrass” value ([12]; Preemergence, 31 g ai/ha) of the same molecule?
The value was 35.

And the “Plant response rating, Field Bindweed” value ([13]; 16 g ai/ha, preemergence)?
The value was 0.

And the “Field Bindweed plant response rating” value ([13]; 125 g ai/ha, preemergence)?
The value was 0.

And the “Plant response rating, Field Bindweed” value ([13]; Preemergence, 62 g ai/ha)?
The value was 0.

And the “Plant response rating, Field Bindweed” value ([13]; Preemergence, 31 g ai/ha)?
The value was 0.

And the “Plant response rating, Purslane” value ([14]; 16 g ai/ha, preemergence)?
Its value is 0.

And the “Purslane plant response rating” value ([14]; 125 g ai/ha, preemergence)?
Its value is 35.

What about the “Plant response rating, Purslane” value ([14]; Preemergence, 62 g ai/ha) of the same molecule?
Its value is 30.

And the “Plant response rating, Surinam Grass” value ([15]; 16 g ai/ha, preemergence)?
Its value is 0.

What about the “Surinam Grass plant response rating” value ([15]; preemergence) of the same molecule?
The value was 100.

And the “Plant response rating, Surinam Grass” value ([15]; Preemergence, 62 g ai/ha)?
The value was 90.

What about the “Plant response rating, Surinam Grass” value ([15]; Preemergence, 31 g ai/ha) of the same molecule?
The value was 30.
